Measured values taken from ChEMBL document CHEMBL1143033, “Nodulisporol and Nodulisporone, novel specific inhibitors of human DNA polymerase lambda from a fungus, Nodulisporium sp” (Bioorg Med Chem, 2007).

Legend:
[1] = biological target: T1, DNA polymerase delta catalytic subunit (Homo sapiens, UniProt P28340); test: Inhibition of human DNA polymerase delta
T1 sequence (P28340 whole entry): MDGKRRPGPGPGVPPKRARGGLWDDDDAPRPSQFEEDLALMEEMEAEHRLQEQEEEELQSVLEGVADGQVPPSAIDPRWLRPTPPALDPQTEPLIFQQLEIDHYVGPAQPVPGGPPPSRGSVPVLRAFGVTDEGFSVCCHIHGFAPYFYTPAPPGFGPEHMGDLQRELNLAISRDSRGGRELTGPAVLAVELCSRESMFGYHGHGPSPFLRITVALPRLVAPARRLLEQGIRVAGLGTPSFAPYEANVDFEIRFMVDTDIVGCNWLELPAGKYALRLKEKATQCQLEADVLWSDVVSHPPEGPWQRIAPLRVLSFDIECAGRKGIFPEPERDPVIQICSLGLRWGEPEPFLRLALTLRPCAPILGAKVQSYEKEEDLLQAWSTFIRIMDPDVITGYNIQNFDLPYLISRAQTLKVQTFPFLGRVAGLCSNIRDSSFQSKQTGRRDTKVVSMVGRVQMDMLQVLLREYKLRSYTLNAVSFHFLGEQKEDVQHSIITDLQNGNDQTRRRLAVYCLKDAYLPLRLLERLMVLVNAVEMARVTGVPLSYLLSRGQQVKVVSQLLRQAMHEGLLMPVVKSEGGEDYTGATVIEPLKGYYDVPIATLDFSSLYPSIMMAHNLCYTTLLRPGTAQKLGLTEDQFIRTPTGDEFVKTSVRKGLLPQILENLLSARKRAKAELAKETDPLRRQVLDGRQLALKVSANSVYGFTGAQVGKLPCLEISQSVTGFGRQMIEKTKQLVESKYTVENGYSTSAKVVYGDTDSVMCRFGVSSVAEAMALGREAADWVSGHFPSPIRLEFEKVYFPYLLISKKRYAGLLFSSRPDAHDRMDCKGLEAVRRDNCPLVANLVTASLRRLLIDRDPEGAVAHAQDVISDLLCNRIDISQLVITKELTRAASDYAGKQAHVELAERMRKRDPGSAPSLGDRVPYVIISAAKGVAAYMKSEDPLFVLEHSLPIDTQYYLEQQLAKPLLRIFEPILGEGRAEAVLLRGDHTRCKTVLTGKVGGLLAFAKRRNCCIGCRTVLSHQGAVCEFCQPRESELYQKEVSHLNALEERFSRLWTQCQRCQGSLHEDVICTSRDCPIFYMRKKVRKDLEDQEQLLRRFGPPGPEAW

DNA polymerase lambda = biological target: T2, DNA polymerase lambda (Homo sapiens, UniProt Q9UGP5); test: Inhibition of human DNA polymerase lambda
T2 sequence (Q9UGP5 whole entry): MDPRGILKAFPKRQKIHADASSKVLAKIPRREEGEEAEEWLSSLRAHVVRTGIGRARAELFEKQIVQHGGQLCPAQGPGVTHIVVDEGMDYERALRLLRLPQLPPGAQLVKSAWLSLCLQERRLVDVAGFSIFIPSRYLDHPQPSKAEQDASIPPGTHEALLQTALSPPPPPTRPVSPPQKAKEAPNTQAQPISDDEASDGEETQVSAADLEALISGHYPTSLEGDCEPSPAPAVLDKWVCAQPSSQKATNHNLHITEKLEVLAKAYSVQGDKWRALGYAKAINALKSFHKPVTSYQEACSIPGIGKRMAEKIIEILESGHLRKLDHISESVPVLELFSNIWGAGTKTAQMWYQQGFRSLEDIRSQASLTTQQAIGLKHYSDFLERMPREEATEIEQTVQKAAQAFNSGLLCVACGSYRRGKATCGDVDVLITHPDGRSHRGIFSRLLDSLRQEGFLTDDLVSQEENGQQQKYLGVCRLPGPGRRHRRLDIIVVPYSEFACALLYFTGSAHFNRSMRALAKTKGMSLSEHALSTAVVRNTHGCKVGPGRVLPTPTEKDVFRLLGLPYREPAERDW

DNA polymerase beta = DNA polymerase beta (Rattus norvegicus, UniProt P06766); test: Inhibition of rat DNA polymerase beta
[2] = Inhibition of human DNA polymerase epsilon
[3] = Inhibition of calf DNA polymerase alpha; set-up: species or system Bos taurus
[4] = Inhibition of human DNA polymerase gamma

| SMILES | IC50 [1] | IC50 (DNA polymerase lambda) | IC50 (DNA polymerase beta) | IC50 [2] | IC50 [3] | IC50 [4] |
| --- | --- | --- | --- | --- | --- | --- |
| COc1cccc2c1C(=O)OC(C)C2 (configuration not stated) | > 1000 µM | 180 µM | > 1000 µM | > 1000 µM | > 1000 µM | > 1000 µM |
| CC1Cc2cccc(O)c2C(=O)O1 (configuration not stated) [MELLEIN] | > 1000 µM | 316 µM | > 1000 µM | > 1000 µM | > 1000 µM | > 1000 µM |
| COc1cccc2c1C(O)CCC2O (configuration not stated) [NODULISPOROL] | > 1000 µM | 168 µM | > 1000 µM | > 1000 µM | > 1000 µM | > 1000 µM |
| COc1cccc2c1C(=O)CCC2O (configuration not stated) [NODULISPORONE] | > 1000 µM | 82 µM | > 1000 µM | > 1000 µM | > 1000 µM | > 1000 µM |

Further lines, results first:

| IC50 [1] | IC50 (DNA polymerase lambda) | IC50 (DNA polymerase beta) | IC50 [2] | IC50 [3] | IC50 [4] | SMILES |
| --- | --- | --- | --- | --- | --- | --- |
| > 1000 µM | 454 µM | > 1000 µM | > 1000 µM | > 1000 µM | > 1000 µM | COc1cc(O)c2c(=O)c(CO)c(C)oc2c1 |
| > 1000 µM | 275 µM | > 1000 µM | > 1000 µM | > 1000 µM | > 1000 µM | CC1Cc2c(C=O)ccc(O)c2C(=O)O1 (configuration not stated) |
| > 1000 µM | 49 µM | > 1000 µM | > 1000 µM | > 1000 µM | > 1000 µM | COc1ccc(C)c2c1C(=O)OC(C)C2 (configuration not stated) |
